This is an account of results in patent US20190077795A1, “ARGININE […] INHIBITORS AND USES THEREOF” (Epizyme, Inc., priority 2014, published 2019).

One test addresses T1, human PRMT6 (Homo sapiens, UniProt Q96LA8).
T1 construct: Flag-PRMT6-His; made in house; host or cells: HEK 293F cells (BacMam baculovirus, pFastBacMam)
Briefly: PRMT6 Biochemical Assay. The note with it: for pIC50: peptide substrate, 3H-SAM Flashplate assay, read-out: PRMT6 IC50; for IC50: PRMT6 IC50 (uM). From the text: S-adenosylmethionine (SAM), S-adenosylhomocysteine (SAH), bicine, Tween20, dimethylsulfoxide (DMSO), bovine skin gelatin (BSG), sodium butyrate and Tris(2-carboxyethyl)phosphine hydrochloride solution (TCEP) were purchased from Sigma-Aldrich at the highest level of purity possible. ^3H-SAM was purchase from American Radiolabeled Chemicals with a specific activity of 80 Ci/mmol. 384-well streptavidin Flashplates were purchased from PerkinElmer.
Peptide representative of human histone H4 residues 36-50 was synthesized with an N-terminal linker-affinity tag motif and a C-terminal amide cap by 21st Century Biochemicals.
The amplified gene was subcloned into pFastBacMam (Viva Biotech).
Recombinant baculovirus were generated according to Bac-to-Bac kit instructions (Life Technologies). […] Infections were carried out at 37° C. for 48 hours, harvested by centrifugation, and stored at −80° C. for purification.
Column was washed with 20 mM imidazole in the same buffer and Flag-PRMT6-His was eluted with 150 mM imidazole. Pooled fractions were dialysed against buffer Ni-A and further purified by anti-flag M2 affinity chromatography. Flag-PRMT6-His was eluted with 200 ug/ml FLAG peptide in the same buffer. Pooled fractions were dialysed in 20 mM Tris, 150 mM NaCl, 10% glycerol and 5 mM β-mercaptoethanol, pH 7.8.
General Procedure for PRMT6 Enzyme Assays on Peptide Substrates.
(§1) The assays were all performed in a buffer consisting of 20 mM Bicine (pH=7.6), 1 mM TCEP, 0.005% BSG, and 0.002% Tween 20, prepared on the day of use. […] DMSO (1 ul) was added to Columns 11, 12, 23, 24, rows A-H for the maximum signal control and 1 ul of SAH, a known product and inhibitor of PRMT6, was added to columns 11, 12, 23, 24, rows I-P for the minimum signal control. A cocktail (40 ul) containing the PRMT6 enzyme was added by Multidrop Combi (Thermo-Fisher). The compounds were allowed to incubate with PRMT6 for 30 min at room temperature, then a cocktail (10 ul) containing SAM and peptide was added to initiate the reaction (final volume=51 ul). […] The assays were stopped by the addition of non-radiolabeled SAM (10 ul) to a final concentration of 400 uM, which dilutes the ^3H-SAM to a level where its incorporation into the peptide substrate is no longer detectable. 50 ul of the reaction in the 384-well polypropylene plate was then transferred to a 384-well Flashplate and the biotinylated peptides were allowed to bind to the streptavidin surface for at least 1 hour before being washed once with 0.1% Tween20 in a Biotek ELx405 plate washer. The plates were then read in a PerkinElmer TopCount plate reader to measure the quantity of ^3H-labeled peptide bound to the Flashplate surface, measured as disintegrations per minute (dpm) or alternatively, referred to as counts per minute (cpm).
(§2) Where dpm=disintegrations per minute, cmpd=signal in assay well, and min and max are the respective minimum and maximum signal controls.
(§3) Where top and bottom are the normally allowed to float, but may be fixed at 100 or 0 respectively in a 3-parameter fit. The Hill Coefficient normally allowed to float but may also be fixed at 1 in a 3-parameter fit. Y is the % inhibition and X is the compound concentration.

Test [1] deals with mono-methyl arginine in RKO cells. Briefly: RKO Methylation Assay, In Cell Western (ICW). It counts as cell-based. The note with it: 72 hours. An excerpt: RKO adherent cells were purchased from ATCC (American Type Culture Collection), Manassas, Va., USA. DMEM/Glutamax medium, penicillin-streptomycin, heat inactivated fetal bovine serum, 0.05% trypsin and D-PBS were purchased from Life Technologies, Grand Island, N.Y., USA. Odyssey blocking buffer, 800CW goat anti-rabbit IgG (H+L) antibody, and Licor Odyssey infrared scanner were purchased from Licor Biosciences, Lincoln, Nebr., USA. Mono-methyl arginine antibody was purchased from Cell Signaling Technology, Danvers, Mass., USA. Methanol was purchased from VWR, Franklin, Mass., USA. 10% Tween 20 was purchased from KPL, Inc., Gaithersburg, Md., USA. DRAQ5 was purchased from Biostatus Limited, Leicestershire, UK.
RKO adherent cells were maintained in growth medium (DMEM/Glutamax medium supplemented with 10% v/v heat inactivated fetal bovine serum and 100 units/mL penicillin-streptomycin) and cultured at 37° C. under 5% CO2.
Cell treatment, In Cell Western (ICW) for detection of mono-methyl arginine and DNA content.
Compound (100 nL) from a 96-well source plate was added directly to 384 well cell plate. Plates were incubated at 37° C., 5% CO2 for 72 hours. After three days of incubation, plates were brought to room temperature outside of the incubator for ten minutes and blotted on paper towels to remove cell media. 50 μL of ice cold 100% methanol was added directly to each well and incubated for 30 min at room temperature. After 30 min, plates were transferred to a Biotek EL406 plate washer and washed 2 times with 100 μL per well of wash buffer (1×PBS). Next 60 μL per well of Odyssey blocking buffer (Odyssey Buffer with 0.1% Tween 20 (v/v)) were added to each plate and incubated 1 hour at room temperature. Blocking buffer was removed and 20 μL per well of primary antibody was added (mono-methyl arginine diluted 1:200 in Odyssey buffer with 0.1% Tween 20 (v/v)) and plates were incubated overnight (16 hours) at 4° C. Plates were washed 5 times with 100 μL per well of wash buffer. […] The plates were washed 5 times with 100 μL per well wash buffer then 2 times with 100 μL per well of water. Plates were allowed to dry at room temperature then imaged on the Licor Odyssey machine which measures integrated intensity at 700 nm and 800 nm wavelengths. Both 700 and 800 channels were scanned.
First, the ratio for each well was determined by:
Each plate included fourteen control wells of DMSO only treatment (minimum activation) as well as fourteen control wells for maximum activation treated with 20 μM of a reference compound. The average of the ratio values for each control type was calculated and used to determine the percent activation for each test well in the plate. Reference compound was serially diluted three-fold in DMSO for a total of nine test concentrations, beginning at 20 μM. Percent activation was determined and EC30 curves were generated using triplicate wells per concentration of compound.

The target in another test is human PRMT8 (Homo sapiens, UniProt Q9NR22). Briefly: PRMT8 Biochemical Assay. To be noted: PRMT8 IC50 (uM), peptide substrate, 3H-SAM Flashplate assay.
Another test has as its target T2, human PRMT1 (Homo sapiens, UniProt Q99873).
T2 construct: GST-tagged PRMT1; made in house; host or cells: High Five insect cells (baculovirus, pFastBac1)
The test is described as follows: PRMT1 Biochemical Assay. The note with it: peptide substrate, 3H-SAM Flashplate assay; read-out: PRMT1 IC50.
Excerpt: S-adenosylmethionine (SAM), S-adenosylhomocysteine (SAH), bicine, Tween20, dimethylsulfoxide (DMSO), bovine skin gelatin (BSG), and Tris(2-carboxyethyl)phosphine hydrochloride solution (TCEP) were purchased from Sigma-Aldrich at the highest level of purity possible. ^3H-SAM was purchase from American Radiolabeled Chemicals with a specific activity of 80 Ci/mmol. 384-well streptavidin Flashplates were purchased from PerkinElmer.
Recombinant baculovirus were generated according to Bac-to-Bac kit instructions (Life Technologies). […] Infections were carried out at 27° C. for 48 hours, harvested by centrifugation, and stored at −80° C. for purification.
GST-tagged PRMT1 was eluted with 50 mM Tris, 2 mM glutathione, pH 7.8, dialysed in buffer A and concentrated to 1 mg/mL.
General Procedure for PRMT1 Enzyme Assays on Peptide Substrates.
as §1, with “PRMT1,” for “PRMT6,”, “PRMT1” for “PRMT6”, “300” for “400”
as §2, §3

pIC50: −log10 of the molar value. Like-named read-outs stand apart in the source and are kept apart here.

T2 sequence (Q99873 with tags, fused parts or gaps): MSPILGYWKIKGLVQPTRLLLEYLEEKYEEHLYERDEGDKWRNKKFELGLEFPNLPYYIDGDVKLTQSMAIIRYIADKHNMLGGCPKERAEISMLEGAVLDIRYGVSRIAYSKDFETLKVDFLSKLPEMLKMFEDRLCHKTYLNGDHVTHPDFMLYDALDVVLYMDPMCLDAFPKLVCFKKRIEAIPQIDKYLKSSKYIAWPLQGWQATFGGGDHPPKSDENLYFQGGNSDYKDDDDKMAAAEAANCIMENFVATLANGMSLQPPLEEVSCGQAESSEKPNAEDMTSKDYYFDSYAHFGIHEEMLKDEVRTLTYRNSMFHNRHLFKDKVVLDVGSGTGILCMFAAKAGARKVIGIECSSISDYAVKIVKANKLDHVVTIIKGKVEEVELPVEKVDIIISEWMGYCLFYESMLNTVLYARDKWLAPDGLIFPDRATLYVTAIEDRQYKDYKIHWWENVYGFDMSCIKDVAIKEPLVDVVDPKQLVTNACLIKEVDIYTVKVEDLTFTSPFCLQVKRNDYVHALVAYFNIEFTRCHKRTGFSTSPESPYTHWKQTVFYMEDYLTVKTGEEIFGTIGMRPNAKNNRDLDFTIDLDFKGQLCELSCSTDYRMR
T1 sequence (Q96LA8 with tags, fused parts or gaps): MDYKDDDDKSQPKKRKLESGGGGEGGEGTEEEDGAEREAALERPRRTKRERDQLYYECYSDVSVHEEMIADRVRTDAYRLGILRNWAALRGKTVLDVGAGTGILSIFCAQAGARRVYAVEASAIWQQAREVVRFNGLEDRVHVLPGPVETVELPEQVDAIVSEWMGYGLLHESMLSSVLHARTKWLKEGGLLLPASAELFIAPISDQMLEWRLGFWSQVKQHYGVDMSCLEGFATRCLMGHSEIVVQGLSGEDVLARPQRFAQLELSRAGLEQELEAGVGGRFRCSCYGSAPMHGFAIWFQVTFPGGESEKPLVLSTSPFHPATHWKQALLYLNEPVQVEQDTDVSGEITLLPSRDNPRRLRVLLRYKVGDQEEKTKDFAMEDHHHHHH
Sequence of human PRMT8 (Q9NR22 whole entry): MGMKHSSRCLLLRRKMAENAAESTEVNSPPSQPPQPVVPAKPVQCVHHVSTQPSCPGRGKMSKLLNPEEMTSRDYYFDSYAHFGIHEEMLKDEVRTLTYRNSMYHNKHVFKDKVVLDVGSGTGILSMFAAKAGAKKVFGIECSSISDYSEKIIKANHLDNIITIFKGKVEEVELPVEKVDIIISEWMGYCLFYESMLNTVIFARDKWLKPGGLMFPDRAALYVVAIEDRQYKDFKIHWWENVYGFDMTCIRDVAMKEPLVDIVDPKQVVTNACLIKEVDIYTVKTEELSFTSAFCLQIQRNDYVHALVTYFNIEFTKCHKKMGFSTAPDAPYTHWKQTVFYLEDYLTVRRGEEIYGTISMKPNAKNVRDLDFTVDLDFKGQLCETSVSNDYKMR
Excerpt for human PRMT8: S-adenosylmethionine (SAM), S-adenosylhomocysteine (SAH), bicine, Tween20, dimethylsulfoxide (DMSO), bovine skin gelatin (BSG), isopropyl-3-D-thiogalactopyranoside (IPTG), and Tris(2-carboxyethyl)phosphine hydrochloride solution (TCEP) were purchased from Sigma-Aldrich at the highest level of purity possible. ^3H-SAM was purchase from American Radiolabeled Chemicals with a specific activity of 80 Ci/mmol. 384-well streptavidin Flashplates were purchased from PerkinElmer.
E. coli (BL21(DE3) Gold, Stratagene) made competent by the CaCl2 method were transformed with the PRMT8 construct and ampicillin selection. Protein over-expression was accomplished by growing the PRMT8 expressing E. coli clone and inducing expression with 0.3 mM IPTG at 16° C. The culture was grown for 12 hours, harvested by centrifugation, and stored at −80° C. for purification.
GST-tagged PRMT8 was eluted with 50 mM Tris, 2 mM glutathione, pH 7.8. Pooled fractions were cleaved by thrombin (10U) and dialysed in buffer A. GST was removed by reloading the cleaved protein sample onto glutathione sepharose column and PRMT8 was collected in the flow-through fractions. PRMT8 was purified further by ceramic hydroxyapatite chromatography. The column was washed with 50 mM phosphate buffer, 100 mM NaCl, 5% glycerol, 5 mM β-mercaptoethanol, pH 7.8 and PRMT8 was eluted by 100 mM phosphate in the same buffer. Protein was concentrated and buffer was exchanged to 50 mM Tris, 300 mM NaCl, 10% glycerol, 5 mM β-mercaptoethanol, pH 7.8 by ultrafiltration.
General Procedure for PRMT8 Enzyme Assays on Peptide Substrates.
The assays were all performed in a buffer consisting of 20 mM Bicine (pH=7.6), 1 mM TCEP, 0.005% BSG, and 0.002% Tween 20, prepared on the day of use. […] DMSO (1 ul) was added to Columns 11, 12, 23, 24, rows A-H for the maximum signal control and 1 ul of SAH, a known product and inhibitor of PRMT8, was added to columns 11, 12, 23, 24, rows I-P for the minimum signal control. A cocktail (40 ul) containing the PRMT8 enzyme was added by Multidrop Combi (Thermo-Fisher). The compounds were allowed to incubate with PRMT8 for 30 min at room temperature, then a cocktail (10 ul) containing ^3H-SAM and peptide was added to initiate the reaction (final volume=51 ul). […] The assays were stopped by the addition of non-radiolabeled SAM (10 ul) to a final concentration of 400 uM, which dilutes the ^3H-SAM to a level where its incorporation into the peptide substrate is no longer detectable. 50 ul of the reaction in the 384-well polypropylene plate was then transferred to a 384-well Flashplate and the biotinylated peptides were allowed to bind to the streptavidin surface for at least 1 hour before being washed once with 0.1% Tween20 in a Biotek ELx405 plate washer. The plates were then read in a PerkinElmer TopCount plate reader to measure the quantity of ^3H-labeled peptide bound to the Flashplate surface, measured as disintegrations per minute (dpm) or alternatively, referred to as counts per minute (cpm).

`CNCCN(C)Cc1c[nH]nc1-c1ccc(OCCCOC)c(OCC2CCOC2)c1` (stereo not shown) [Compound 68]: the negative logarithm of the IC50 (pIC50) – broadly, the IC50 on a negative log10 scale, so that one unit is a factor of ten – is 7.42 on human PRMT6 and 7.83 at human PRMT1. In test [1], the “ICW EC30” value stood at 3.454 µM. Also, on human PRMT8, 0.295 µM corresponded to half-maximal inhibition (IC50).
The like results for `C=C(C)COc1c(Cl)cc(-c2n[nH]cc2CN(C)CCNC)cc1C(F)(F)F` [Compound 39] were, in that order, 7.53, 8.08, 0.439 µM and 0.0122 µM.
On the same counts, the results for `CNCCN(C)Cc1c[nH]nc1-c1ccc(OCCOc2ccc(CO)cc2)cc1` [Compound 16] are 8.43, 8.24, 0.2763 µM and 0.0206 µM.
As for `CNCCN(C)Cc1c[nH]nc1-c1cc(F)c(OCC2CCOCC2)c(C(F)(F)F)c1` [Compound 116], the figures for the half-maximal inhibitory concentration (IC50) at human PRMT6 and against human PRMT8 were 0.0184 µM and 0.118 µM, respectively. For the same molecule, the “ICW EC30” value in test [1] stood at 3.806 µM. Moreover, the negative logarithm of the IC50 (pIC50) on human PRMT1 is 7.41.
On the same counts, the results for `CNCCN(C)Cc1c[nH]nc1-c1cc(OCC2CCOC2)cc(C(F)(F)F)c1` (stereo not shown) [Compound 104] are 2.9 µM, 0.226 µM, 1.467 µM and 7.48.
As to `CNCCN(C)Cc1n[nH]cc1-c1cc(C(=O)C(C)C)cc(C(F)(F)F)c1` [Compound 134], the values for the negative-log IC50 (pIC50) at human PRMT6 and at human PRMT1 were 5.68 and 6.92, respectively. Besides, the “ICW EC30” value in test [1] was greater than 6.7 µM. Also, at human PRMT8, half-maximal inhibition (IC50) required 0.168 µM.
The like results for `CNCCN(C)Cc1c[nH]nc1-c1ccc(OC2CCC(OC(C)C)CC2)cc1` (stereo not shown) [Compound 89] were, in that order, 7.60, 7.64, 0.4491 µM and 0.0475 µM.
The like results for `CNCCN(C)Cc1c[nH]nc1-c1ccc(S(C)(=O)=O)cc1` [Compound 92] were, in that order, 7.51, 7.61, 2.126 µM and 0.043 µM.
On the same counts, the results for `CNCCN(C)Cc1c[nH]nc1-c1cc(OCCCO)cc(C(F)(F)F)c1` [Compound 130] are 6.21, 7.31, 11.844 µM and 0.3 µM.
With `CNCCN(C)Cc1c[nH]nc1-c1ccc(OC2CC(OCCC(O)CO)C2)cc1` (stereo not shown) [Compound 149], the pIC50 on human PRMT6 is 7.54; at human PRMT1, 6.76. For the same molecule, the “ICW EC30” value in test [1] was greater than 20 µM. Besides, the IC50 (commonly the concentration that inhibits the measured activity by half) at human PRMT8 worked out at 0.342 µM.
The like results for `CNCCN(C)Cc1c[nH]nc1-c1ccc(OCCOc2ccc(C(F)(F)F)cc2)cc1` [Compound 138] were, in that order, 8.01, 8.22, 0.3278 µM and 0.0366 µM.
The like results for `CNCCN(C)Cc1c[nH]nc1-c1ccc(OCCOc2ccc(OCCN3CCOCC3)cc2)cc1` [Compound 46] were, in that order, 8.34, 8.02, 0.2516 µM and 0.026 µM.
On the same counts, the results for `COCCOc1cc(-c2n[nH]cc2CN(C)CCN)cc(C(F)(F)F)c1` [Compound 94] are 6.08, 7.59, 6.823 µM and 0.158 µM.
For `CN(CCN)Cc1c[nH]nc1-c1ccc(N2CCOCC2)cc1` [Compound 124], the pIC50 on human PRMT6 is 6.97; on human PRMT1, 7.35. For the same molecule, in test [1], the “ICW EC30” value was 3.978 µM. On human PRMT8, this molecule came in with a half-maximal inhibitory concentration (IC50) of 0.413 µM.
On the same counts, the results for `CNCCN(C)Cc1ccnn1-c1ccc(OCC2CC2)cc1` [Compound 75] are 7.31, 7.79, 0.5381 µM and 0.0487 µM.
For the molecule `CCC(CC)Oc1ccc(-n2nc(C)cc2CN(C)CCNC)cc1` [Compound 65], the IC50 against human PRMT6 was 0.136 µM; on human PRMT8 it was 0.0299 µM. In addition, the “ICW EC30” value in test [1] came out at 0.2156 µM. Further, at human PRMT1, the negative logarithm of the IC50 (pIC50) was 7.85.
